Assay results taken from PMC9181795, “Ibuprofen Favors Binding of Amyloid-β Peptide to Its Depot, Serum Albumin” (International Journal of Molecular Sciences, 2022).
“Also recorded” adds a separate entry of the source.

Columns and labels:
Aβ40(A21G) = test: ThT fluorescence assay, Aβ40(A21G) fibrillation; type: biochemical, human; conditions: 20 µM IBU, 20 µM Aβ40(A21G), no HSA, 30 °C, pH 7.4
Procedure: (§1) ThT fluorescence emission measurements were carried out using a BioTek Synergy H1 multimode microplate reader and Greiner Bio-One non-binding microplates #781906 mainly as described in ref. [11]. […] ThT fluorescence was excited at 440 nm and emission at 485 nm was measured for 190 h every 30 min, with orbital shaking prior to each measurement. […] The lag time, tlag, is calculated as (t0 − 2/kapp).

[1] = set-up: method as in PMID 4202799; conditions: at therapeutic levels; ref [24]; cited from earlier work
Aβ40 = test: ThT fluorescence assay, Aβ40 fibrillation; type: biochemical, human
Procedure: as §1

AD = tested on: AD; set-up: method as in 2 sources, one per row (each row's own in cited_ref): ref [36],[37],[38] = [36]; PMID 11794217; doi:10.1056/NEJMoa010178; 36. In’T Veld B.A. Ruitenberg A. Hofman A. Launer L.J. Van Duijn C.M. Stijnen T. Breteler M.M. Stricker B.H. Nonsteroidal antiinflammatory drugs and the risk of Alzheimer’s disease N. Engl. J. Med. 20 || [37]; PMID 18458226; doi:10.1212/01.wnl.0000311269.57716.63; 37. Vlad S.C. Miller D.R. Kowall N.W. Felson D.T. Protective effects of NSAIDs on the development of Alzheimer disease Neurology 2008 70 1672 1677 10.1212/01.wnl.0000311269.57716.63 18458226 PMC275824 || [38]; PMID 25227314; doi:10.3233/JAD-141506; 38. Wang J. Tan L. Wang H.F. Tan C.C. Meng X.F. Wang C. Tang S.W. Yu J.T. Anti-inflammatory drugs and risk of Alzheimer’s disease: An updated systematic review and meta-analysis J. Alzheimers Dis. 201 ||| ref [36],[37],[73] = [36]; PMID 11794217; doi:10.1056/NEJMoa010178; 36. In’T Veld B.A. Ruitenberg A. Hofman A. Launer L.J. Van Duijn C.M. Stijnen T. Breteler M.M. Stricker B.H. Nonsteroidal antiinflammatory drugs and the risk of Alzheimer’s disease N. Engl. J. Med. 20 || [37]; PMID 18458226; doi:10.1212/01.wnl.0000311269.57716.63; 37. Vlad S.C. Miller D.R. Kowall N.W. Felson D.T. Protective effects of NSAIDs on the development of Alzheimer disease Neurology 2008 70 1672 1677 10.1212/01.wnl.0000311269.57716.63 18458226 PMC275824 || [73]; PMID 33134914; doi:10.1093/braincomms/fcaa109; 73. Rivers-Auty J. Mather A.E. Peters R. Lawrence C.B. Brough D. Anti-inflammatories in Alzheimer’s disease—potential therapy or spurious correlate? Brain Commun. 2020 2 fcaa109 10.1093/braincomms/fca; conditions: cited from earlier work
[2] = set-up: method as in doi:10.3109/03639048309039887, PMID 10714613; conditions: pH values above 7; ref [22],[23]; cited from earlier work
HSA = conditions: cited from earlier work
[3] = 20 µM IBU, no HSA, 20 µM Aβ40, 30 °C, Boltzmann sigmoid function, n = 3–5

Procedure for HSA–Aβ interaction: To ensure the monomeric state of Aβ, the non-covalently bound Aβ molecules were thoroughly washed from the chip surface until stabilization of the SPR signal using several water solutions: 2% sodium dodecyl sulfate (SDS), 100 mM HCl, 20 mM ethylenediaminetetraacetic acid (EDTA) pH 8.0 with 1% SDS.
The freeze-dried Aβ samples were dissolved in neat TFA at a concentration of 0.5–1 mg/mL, followed by sonication for 30 s and TFA evaporation using an Eppendorf Concentrator plus. The dried Aβ samples were dissolved in DMSO at a concentration of 2 mg/mL and stored at −20 °C.
The rest of the activated amine groups on the chip surface were blocked by 1 M ethanolamine solution. […] The double-referenced SPR sensograms were analyzed using the heterogeneous ligand model (Equation (1)), assuming presence of two populations of a ligand (L1 and L2) that bind an analyte molecule (A):(1) ka1L1+ A⇌L1Akd1Kd1 ka2L2+ A⇌L2Akd2Kd2 where ka and kd refer to kinetic association and dissociation constants, respectively; Kd1 and Kd2 are equilibrium dissociation constants. The equilibrium and kinetic dissociation/association constants were evaluated for each analyte concentration using Bio-Rad ProteOn Manager™ v.3.1 software (Hercules, CA, USA), followed by averaging of the resulting values (n = 3–4; standard deviations are indicated).

## CC(C)Cc1ccc(C(C)C(=O)O)cc1 (stereo not drawn) [IBU, 2-[4-(2-methylpropyl)phenyl]propanoic acid]
Aβ40(A21G)
  suppression of fibrillation by IBU alone: does not induce statistically significant suppression of the fibrillation process
[1]
  bound to blood plasma proteins: 99%
Aβ40; 20 µM IBU + 2 µM HSA, 20 µM Aβ40, 30 °C, pH 7.4
  effect of IBU on suppression of Aβ40 fibrillation by HSA: strengthens the suppression of Aβ40 fibrillation by 2 µM HSA; also recorded: favors the suppression of fibrillation of 20 µM Aβ40 by 2 µM HSA
Aβ40; 20 µM IBU in presence of 2 µM HSA, 20 µM Aβ40, 30 °C, n = 3–5
  decline in tlag in response to IBU: 21%
Aβ40; 20 µM IBU, 2 µM HSA, 20 µM Aβ40
  minor opposite effects of IBU on lag phase and rate constant: shortening of the lag phase and decrease in the apparent rate constant of the process
Aβ40; 20 µM IBU, 20 µM Aβ40, no HSA, 30 °C, pH 7.4
  suppression of fibrillation by IBU alone: does not induce statistically significant suppression of the fibrillation process
Aβ40; [3]
  effect on apparent rate constant kapp: did not affect the kapp value
  factor of shortening of lag phase (tlag): 2
Aβ40; combination of 2 µM HSA and 20 µM IBU, 20 µM Aβ40, 30 °C, n = 3–5
  decrease in apparent rate constant kapp: 17%
AD; ref [36],[37],[73]
  rates of AD among people taking IBU for chronic treatment of inflammatory conditions: lower rates of AD
AD; retrospective studies, ref [36],[37],[38]
  AD protection with long-term use of nonsteroidal anti-inflammatory drugs, including IBU: protective against AD
[2]
  water solubility: 100 to 1000 mM
HSA; ref [74],[75]
  effect of IBU on HSA affinity to heme: allosterically affect HSA affinity to heme
HSA; ref [76]
  effect of IBU binding on HSA affinity to lorazepam: enhanced its affinity to lorazepam
HSA–Aβ interaction
  effect of IBU on HSA affinity to Aβ compared with serotonin: lower than the effect for serotonin
